Consider 81 compounds from publication PMC12040169 (PLOS Biology, 2025).

A short description of this series: in vitro. The note with it: human, hela cells, % viability.

By viability is commonly meant a read-out of living cells in per cent, often relative to untreated cells. For the compound `Cc1ccc(-c2n[nH]c(=S)n2CC(=O)N(C)Cc2ccc(N3CCOCC3)cc2)cc1` [CBK297908], the viability at 28.5 h, 10 µM worked out at 85.9%.
The result for `O=C(C(c1ccccc1)c1ccccc1)N1CCN(c2ncccn2)CC1` [CBK144504] reads 89.4%; that for `Cc1c(Cl)cccc1S(=O)(=O)Nc1c(C(=O)O)[nH]c2ccccc12` [CBK049889], 86.5%; that for `Cc1cc(C)cc(C(=O)NC(=S)Nc2sc(C)c(C)c2C#N)c1` [CBK267089], 92.1%.
The result for `Cc1cnc(CNC(=O)N2CCN(CCN3CCOCC3)CC2)cn1` [CBK155673] reads 95.2%; that for `Cn1ccnc1SCC(=O)Nc1ccc(S(N)(=O)=O)cc1` [CBK263190], 84.6%; that for `O=C(Nc1cc2ccccc2c(Br)n1)Nc1ccc(F)cc1C(F)(F)F` [CBK063278], 96.3%.
The result for `CCn1cc(NCc2ccccc2Cl)c(C(=O)O)n1` [CBK286807] reads 95.2%; that for `O=C1CN(C(=O)NCCOc2ccccc2)CCN1` [CBK155871], 120%.
On to `Cn1c(-c2ccc(C(=O)O)cc2)cc2oc(-c3ccccc3)nc2c1=O` [CBK074957], for which the viability at 28.5 h, 10 µM stood at 98%.
The result for `CC(C)(C)c1ccc(NC(=O)N(Cc2ccccc2C(F)(F)F)CC2CCNCC2)cc1` [CBK049752] reads 86.7%; that for `O=C(NCCN1CCOCC1)C1(c2ccccc2)CCCC1` [CBK149538], 95.2%.
The value for `O=c1/c(=C/c2ccc(N3CCOCC3)cc2)sc2nc3cc(Br)cnc3n12` [CBK262574] was 86.9%; that for `O=C(COc1ccc(F)cc1)N1CCN(c2ncccn2)CC1` [CBK144499] was 94.1%.
The result for `OC1CCN(c2nccc(C(F)(F)F)n2)CC1` [CBK038372] reads 92.1%; that for `OCCN(CCO)CC1CC=CCC1` (stereo not drawn) [CBK261907], 108%; that for `CCn1ncc(Br)c1C(=O)Nc1ccc(Cl)cn1` [CBK265826], 94.8%.
As for `C=CCOc1cccc(CNc2nn[nH]n2)c1` [CBK267618], the viability at 28.5 h, 10 µM came out at 109%.
The result for `O=C1NC(=S)S/C1=C\c1cn(-c2ccccc2)nc1-c1ccc(OCc2ccccc2)cc1` [CBK265496] reads 79.4%.
As to `O=C(COc1ccccc1)Nc1cccc(N2CCNCC2)c1` [CBK028271T], the viability at 28.5 h, 10 µM is 100%.
The value for `Cc1ccc(OCCO)cn1` [CBK001786] was 91%.
Turning to `Cc1noc(C)c1C(=O)N1CCN(Cc2ccco2)C[C@@H]1C(C)C` [CBK284248], the viability at 28.5 h, 10 µM is 93.9%.
The value for `COC(=O)N1CC2(CCCCC2NCC2CCCO2)c2ccccc21` (stereo not drawn) [CBK083541T] was 95.2%; that for `COc1ccc(OC(=O)C2CCN(C(=O)CC(C)C)CC2)c([N+](=O)[O-])c1` [CBK154770] was 97.4%.
For `COc1ccc(-c2cc([C@H]3CN4CC[C@H]3C[C@@H]4CNC(C)=O)n(C)n2)cc1OC` [CBK288757], the viability at 28.5 h, 10 µM was determined as 86.3%.
The value for `Cc1nc(-c2cccnc2)[nH]c(=O)c1CC(=O)N(C)C1CCCC1` [CBK304907] was 83%; that for `COc1ccc([C@]23CN(C)C[C@H]2CCN(C(=O)c2cccc(Br)c2)C3)cc1OC` [CBK075111T] was 96.7%; that for `O=C(NC1(c2cccc(F)c2)CCCC1)c1cnccn1` [CBK283619] was 93%.
With `COc1ccccc1NS(=O)(=O)c1ccc2c(c1)C1C=CCC1C(c1ccc(C(=O)O)cc1)N2` (stereo not drawn) [CBK268903], the viability at 28.5 h, 10 µM was 101%.
The result for `CC(=O)c1sc(NC(=O)c2ccc(Br)o2)nc1C` [CBK057948] reads 91.6%; that for `CCS(=O)(=O)c1ccc2cc(C(=O)O)[nH]c2c1` [CBK286951], 101%.
The result for `O=c1[nH]c2cccc3c2n1C[C@H](NCCc1ccccc1)C3` [CBK016688C] reads 105%; that for `COc1ccc(Nc2nc(N)nc(CSc3nncn3C)n2)cc1` [CBK266730], 88.9%; that for `C=CCn1c(COc2ccc(Cl)cc2)nnc1SCC(=O)O` [CBK263171], 105%.
Consider `O=C(CCc1ccccc1)N1CCC(c2cccc(Cc3cccc(F)c3)n2)CC1` [CBK286219], for which the viability at 28.5 h, 10 µM amounted to 97.5%.
In the case of `COc1ccc(CCN(C)Cc2ccccn2)cc1OC` [CBK261912], the viability at 28.5 h, 10 µM came to 88.8%.
The value for `CCNC(=O)[C@H]1CN(Cc2ccccc2)C[C@@H]1C(=O)c1ccccc1` [CBK285265] was 88.1%.
The value for `Cc1csc(C(Cc2ccsc2)NC(=O)c2ccnn2C)n1` (stereo not drawn) [CBK285107] was 104%.
The value for `CCOC(=O)c1c(C)nc2n(CCN3CCCCC3)c3ccccc3n12` [CBK278238C] was 91.3%; that for `O=C(O)c1cccc(NC(=O)c2cc(-n3cnnc3)ccc2Cl)c1` [CBK268026] was 83%; that for `c1cncc(COc2ccnc(N3CCCN(Cc4ccc5c(c4)OCO5)CC3)n2)c1` [CBK084112] was 92.5%.
On to `Clc1ccc(-c2nccnc2OCc2ccccn2)cc1Cl` [CBK107108], for which the viability at 28.5 h, 10 µM stood at 94.7%.
As to `O=S(=O)(Cc1cc(Cl)ccc1F)N1CCN(CCO)CC1` [CBK306385], the viability at 28.5 h, 10 µM worked out at 80%.
The result for `Cc1c(F)cccc1CNC1CCC(NC(=O)OC(C)(C)C)CC1` (stereo not drawn) [CBK056691] reads 85%; that for `N/C(CSc1cccc2c1CCCC2)=N\O` [CBK006787C], 101%; that for `Cc1ccccc1-c1nnc(SC(C)C)n1CCN(C)S(C)(=O)=O` [CBK200088], 101%.
The value for `O=C(NC1CC2(CCCC2)Oc2ccccc21)C1CCOC1` (stereo not drawn) [CBK283802] was 84.3%.
Consider `CC(=O)NCC1CN(c2ccc3c(c2)CCN3C(=O)OC(C)(C)C)C(=O)O1` (stereo not drawn) [CBK012600], for which the viability at 28.5 h, 10 µM was determined as 99.7%.
The result for `S=C(NCc1ccco1)Nc1nn(Cc2ccc(Cl)cc2Cl)cc1Cl` [CBK267021] reads 80.7%; that for `O=S(=O)(Nc1nc(-c2ccccc2Cl)cs1)c1sc(Cl)cc1Br` [CBK200028], 103%; that for `CN1CC(c2ccccc2)C2(CCNCC2)C1` (stereo not drawn) [CBK282225], 105%.
The result for `COc1ccccc1CN(C1CCNCC1)S(=O)(=O)c1c(Cl)cccc1Cl` [CBK160807T] reads 89.2%; that for `N#Cc1ccc(Sc2cccc(F)c2)c(F)c1` [CBK002909], 115%; that for `Fc1ccc(CCN2CCC(Oc3nccnc3OCCN3CCOCC3)CC2)cc1` [CBK082937T], 88.3%.
The result for `CCC(CO)Nc1nccnc1-c1ccsc1` (stereo not drawn) [CBK036606] reads 107%.
As to `Cn1ncc(C#N)c1NC(=O)C1CC(c2ccc(Cl)c(Cl)c2)=NO1` (stereo not drawn) [CBK267478], the viability at 28.5 h, 10 µM came out at 93.7%.
The result for `c1ccc(COc2ccc(-c3cc(Nc4ccc5[nH]ccc5c4)ncn3)cc2)cc1` [CBK090857] reads 111%; that for `CCOC(=O)N1CCC(NC(=O)N2CCCCC2CO)CC1` (stereo not drawn) [CBK155991], 106%; that for `O=C(CSCCO)Nc1ccc(Oc2ccccc2)cc1` [CBK269167], 98.4%.
For `OCCN1CCN(c2cc(N3CCN(c4ccccn4)CC3)n3nccc3n2)CC1` [CBK037129], the viability at 28.5 h, 10 µM amounted to 100%.
The value for `CCNC(=O)N[C@H]1CO[C@H]2[C@@H]1OC[C@@H]2n1nnnc1Oc1ccccc1` [CBK289484] was 102%; that for `O=C(c1nc2ccccc2s1)C1CCN(C(=O)CCc2ccc(-c3ccccc3)o2)CC1` [CBK286170] was 86.8%; that for `C[C@H]1[C@@H]2[C@@H](O)C([C@H](C)C(=O)NC3CC3)CC[C@@]2(C)CC[C@@H]1NC(=O)C1CC1` (stereo partly drawn) [CBK289442] was 87.1%.
As for `FC(F)(F)Oc1ccccc1-c1nnc(NC2CCCCCC2)s1` [CBK074041], the viability at 28.5 h, 10 µM was 93.8%.
The result for `Cc1nc(C(Cc2ccsc2)NC(=O)c2cnn(C)c2)sc1C` (stereo not drawn) [CBK284779] reads 104%; that for `NC(=O)C1(N2CCCCC2)CCN(C(=S)NC2CCCC2)CC1` [CBK091884], 88.1%; that for `COc1cccc(Nc2cc(-c3ccc(N4CCOCC4)cc3)ncn2)c1OC` [CBK037687], 94.7%.
The result for `CCCCCn1c(=O)c(-c2nc3ccccc3c(=O)[nH]2)c(O)c2ccccc21` [CBK291215] reads 110%; that for `CN1CCN(CCOC(=O)N2CCSCC2)CC1` [CBK200288], 94.7%; that for `CCS(=O)(=O)N1C2CCC(C2)[C@H]1COc1ccc(F)cc1` (stereo partly drawn) [CBK285280], 109%.
For the compound `Cc1onc(-c2ccccc2)c1CNC(=O)/C=C/c1ccc2c(c1)OCO2` [CBK144085], the viability at 28.5 h, 10 µM is 95%.
The result for `COc1cc(OC)c(NC(=O)C(C)Oc2ccc(Cl)c(C)c2)cc1Cl` (stereo not drawn) [CBK269697] reads 89.7%; that for `COc1ccc(CC(C(=O)Nc2ccc3nc[nH]c(=O)c3c2)c2ccccc2)cc1` (stereo not drawn) [CBK285863], 94.3%; that for `c1cncc(-c2nnc([C@H]3CCNC3)o2)c1` [CBK289396], 103%.
Take `N#Cc1c(NC(=O)CN2CCN(Cc3ccccc3)CC2)sc2c1CCCC2` [CBK267969]: the viability at 28.5 h, 10 µM is 99.6%.
The result for `COc1ccc(-c2cc(-c3ccccc3)c(C#N)c(S(=O)(=O)Cc3ccccc3)n2)cc1` [CBK265949] reads 89.6%.
The value for `COc1ccc(CC(=O)NC(CCSC)c2nnc3ccccn23)cc1` (stereo not drawn) [CBK306077] was 96%; that for `O=C(CN(C(=O)CNC(=O)c1cccs1)c1cccc(C(F)(F)F)c1)NC1CCCCC1` [CBK084697] was 94.5%; that for `CC(=O)c1ccc(-c2ccc(C(=O)N(C)CCN(C)C)c(N(C)C)n2)s1` [CBK106071] was 85.6%.
Take `CC(=O)Nc1ccc(CNC(=O)c2cc(C)n(CC(F)(F)F)c2C)cc1` [CBK304523]: the viability at 28.5 h, 10 µM was found to be 79.2%.
The result for `Cc1ccc(-n2c(=O)[nH]c3c(C(=O)Nc4ccccc4)cn(C)c3c2=O)cc1` [CBK287651] reads 93.9%.
